In series [1] the test system is Staphylococcus aureus. Description: Antimicrobial activity against methicillin-resistant Staphylococcus aureus by NCCLS method. It counts as functional, organism-based.
Series [2] has as its system Plasmodium falciparum. Description: Antimicrobial activity against Plasmodium falciparum D6 after 72 hrs by LDH activity assay. It counts as functional, organism-based.
Series [3] deals with Aspergillus fumigatus. Description: Antimicrobial activity against Aspergillus fumigatus by NCCLS method. The series is classed as functional, organism-based.
Series [4] deals with LLC-PK1. Description: Cytotoxicity against a pig LLC-PK1 cells after 48 hrs by Neutral Red assay. The series is classed as cell-based. As to conditions: Sus scrofa, LLC-PK1, 48 h.
Series [5] has as its system Cryptococcus neoformans. The series is described as follows: Antimicrobial activity against Cryptococcus neoformans by NCCLS method. It counts as functional, organism-based.
Series [6] deals with Staphylococcus aureus. Description: Antimicrobial activity against Staphylococcus aureus by NCCLS method. It counts as functional, organism-based.
Series [7] has as its system Leishmania donovani. Description: Antileishmanial activity against Leishmania donovani promastigotes after 48 hrs by Alamar Blue assay. The series is classed as functional, organism-based. The note with it: for IC50: read-out: IC50. (Resazurin is reduced to fluorescent resorufin, in cell work by metabolically active cells.)
In series [8] the test system is Vero. The series is described as follows: Cytotoxicity against african green monkey Vero cells after 48 hrs by Neutral Red assay. The series is classed as cell-based. The note with it: Chlorocebus sabaeus.
Series [9] has as its system HepG2. Description: Cytotoxicity against human HepG2 cells after 48 hrs by Neutral Red assay. It counts as cell-based. As to conditions: HepG2, 48 h.
Series [10] relates to Plasmodium falciparum. Description: Antimicrobial activity against Plasmodium falciparum W2 after 72 hrs by LDH activity assay. The series is classed as functional, organism-based.
For series [11], the system named is Candida albicans. Description: Antimicrobial activity against Candida albicans by NCCLS method. It counts as functional, organism-based.
Series [12] is described as follows: Selectivity index, ratio of IC50 for pig LLC-PK1 cells to IC50 for Plasmodium falciparum D6. The note with it: read-out: Ratio IC50. The series is classed as toxicity, cell-based.
The nature of series [13]: Selectivity index, ratio of IC50 for human HepG2 cells to IC50 for Plasmodium falciparum W2. The series is classed as toxicity, cell-based. As to conditions: read-out: Ratio IC50.
The nature of series [14]: Selectivity index, ratio of IC50 for pig LLC-PK1 cells to IC50 for Plasmodium falciparum W2. It counts as toxicity, cell-based. The note with it: read-out: Ratio IC50.
Series [15] is described as follows: Selectivity index, ratio of IC50 for african green monkey Vero cells to IC50 for Plasmodium falciparum W2. It counts as toxicity, cell-based. The note with it: read-out: Ratio IC50.
Series [16] can be described thus: Selectivity index, ratio of IC50 for african green monkey Vero cells to IC50 for Plasmodium falciparum D6. The note with it: read-out: Ratio IC50. The series is classed as toxicity, cell-based.
Series [17] is described as follows: Selectivity index, ratio of IC50 for human HepG2 cells to IC50 for Plasmodium falciparum D6. The series is classed as toxicity, cell-based. The note with it: read-out: Ratio IC50.
The subject of series [18] is Plasmodium falciparum. Description: Antimicrobial activity against Plasmodium falciparum NF54. It counts as functional.
Where [19] appears, read: Staphylococcus aureus, read-out: IC50.
Setting [20] is: Plasmodium falciparum, D6, 72 h, read-out: IC50.
Where [21] appears, read: Plasmodium falciparum, W2, 72 h, read-out: IC50.

Converted amounts (≈) assume the structure as drawn. The source made the active and inactive calls.

Regarding `O=C1NC(c2c[nH]c3ccc(Br)cc23)Nc2ccccc21` (stereo not given), the MBC result in [1], in series [5] and in [6] was “inactive” throughout. In addition, the MIC entry in series [1], in series [5] and in series [6] was “inactive” throughout. The IC50 (usually the concentration at which inhibition is half-maximal) in [1] (setting [19]) is 20.9 µM; in [2] it was “Not Active”; in series [4], 53 µM; in series [5], 14.8 µM; in series [6] (setting [19]), 25.2 µM; in series [7] (Leishmania donovani, 48 h), 79.9 µM. For the same compound, the concentration for half-maximal inhibition (IC50) in series [8] was greater than 73 µM; in [9], 73 µM; in series [10] it was “Not Active”. The outcome in series [3] and in [11] was inactive.

Turning to `COCCn1cc(-c2ccnc(N)n2)c2cc(Br)ccc21`, the half-inhibitory concentration (IC50) entry in [1] is “Not Active”; in series [2], “Not Active”; in [4] it was 43 µM; in series [5], 27.4 µM; in series [6] it was “Not Active”; in series [7] (Leishmania donovani, 48 h), 23.6 µM. Also, the IC50 in [8] is greater than 72 µM; in series [9], greater than 72 µM; in [10] it was “Not Active”. The MBC result in series [1] and in series [6] was “inactive” in each case. Further, the MIC entry in series [1] and in [6] was “inactive” throughout. Also, the outcome in [3] and in series [11] was inactive. Moreover, the minimum bactericidal concentration (MBC) (as a rule, the smallest concentration meeting the test's criterion for killing) in [5] worked out at 57.6 µM (≈ 20 µg/mL). Besides, the minimal inhibitory concentration (MIC) – broadly, the lowest concentration that inhibits growth of the organism – in series [5] amounted to 57.6 µM (≈ 20 µg/mL). For the same compound, the concentration for an effect of 90% (IC90) (in general, the concentration at which the effect reaches the 90% level) in series [7] (Leishmania donovani, 48 h) worked out at 52.2 µM.

Turning to `CCOc1ccccc1C(=O)n1cc(-c2ccnc(N)n2)c2ccccc21`, the IC50 entry is “Not Active” in [1]; “Not Active” in [2]; greater than 70 µM in series [4]; 45.6 µM in series [5]; “Not Active” in series [6]; 47.4 µM in series [7] (Leishmania donovani, 48 h). In addition, the results for the 50% inhibitory concentration (IC50) in series [8], in series [9] and in [10] were greater than 70 µM, greater than 70 µM and “Not Active”, respectively. In addition, the MBC result in series [1], in [5] and in series [6] was “inactive” throughout. In addition, the MIC result in series [1], in series [5] and in [6] was “inactive” throughout. Besides, the result in [3] and in series [11] was inactive.

As to `Nc1nccc(-c2cn(Cc3ccc(Cl)s3)c3ccccc23)n1`, the half-inhibitory concentration (IC50) entry in series [1] is “Not Active”; in [2] it was “Not Active”; in series [4], greater than 74 µM; in series [5], 13 µM; in series [6], “Not Active”; in series [7] (Leishmania donovani, 48 h) it was 41.3 µM. Also, the half-inhibitory concentration (IC50) in series [8] was greater than 74 µM; in series [9] it was greater than 74 µM; in series [10] it was “Not Active”. Besides, the MBC entry in [1] and in series [6] was “inactive” in each case. Also, the MIC entry in [1] and in series [6] was “inactive” in each case. Moreover, the outcome in series [3] and in [11] was inactive. Besides, the minimal bactericidal concentration (MBC) in series [5] worked out at 14.7 µM (≈ 5.01 µg/mL). The compound also yielded a minimum inhibitory concentration (MIC) in series [5] of 14.7 µM (≈ 5.01 µg/mL). For the same compound, the IC90 result in series [7] is “inactive”.

As for `Nc1nccc(-c2cn(Cc3ccc(Cl)s3)c3ccc(Br)cc23)n1`, the selectivity ratio in [12] is greater than 4.4; in [13], greater than 5.9; in series [14] it was greater than 5.9; in series [15], greater than 5.9; in [16] it was greater than 4.4; in [17], greater than 4.4. In addition, the IC50 result was “Not Active” in series [1]; 13.6 µM in series [2] (setting [20]); greater than 60 µM in series [4]; 19.9 µM in series [5]; 40.5 µM in [6] (setting [19]); 29.1 µM in series [7] (Leishmania donovani, 48 h). Also, the IC50 in [8] was greater than 60 µM; in series [9], greater than 60 µM; in series [10] (setting [21]) it was 10.1 µM. In addition, the MBC entry in series [1] and in series [6] was “inactive” throughout. Besides, the MIC entry in series [1] and in series [6] was “inactive” in each case. Moreover, the outcome in series [3] and in series [11] was inactive. In [5], the MBC was 47.7 µM (≈ 20 µg/mL). Also, the MIC in series [5] was found to be 47.7 µM (≈ 20 µg/mL). The same compound returned a concentration for an effect of 90% (IC90) in series [7] (Leishmania donovani, 48 h) of 41.2 µM.

In series [18], `CN1CCN(c2ncc(-c3ccccc3)c(-c3c[nH]c4ccccc34)n2)CC1` displayed a minimal inhibitory concentration (MIC) of 3 µM (≈ 1.11 µg/mL).

With `Nc1nccc(-c2cn(C(=O)c3ccccc3)c3ccc(Br)cc23)n1`, the selectivity ratio in series [12] is greater than 8.5; in series [13] it was greater than 16; in series [14], greater than 16; in series [15] it was greater than 16; in [16] it was greater than 8.5; in [17], greater than 8.5. Also, the IC50 result is “Not Active” in series [1]; 7.45 µM in series [2] (setting [20]); greater than 64 µM in series [4]; 24.3 µM in series [5]; “Not Active” in series [6]; 105 µM in series [7] (Leishmania donovani, 48 h). The IC50 is greater than 64 µM in series [8], greater than 64 µM in series [9] and 3.98 µM in series [10] (setting [21]). Also, the MBC result in series [1], in [5] and in series [6] was “inactive” each time. Besides, the MIC result in series [1], in [5] and in [6] was “inactive” throughout. Also, the outcome in series [3] and in [11] was inactive.

As for `Nc1nccc(-c2c[nH]c3ccc(Br)cc23)n1` [MERIDIANIN C], the selectivity ratio in series [12] was greater than 6; in series [13] it was greater than 7.4; in [14], greater than 7.4; in series [15] it was greater than 7.4; in series [16] it was greater than 6; in series [17], greater than 6. The IC50 entry in series [1] was “Not Active”; in [2] (setting [20]) it was 14.4 µM; in series [4] it was greater than 87 µM; in series [5], 56.5 µM; in [6], “Not Active”; in series [7] (Leishmania donovani, 48 h), 64.9 µM. Besides, the concentration for half-maximal inhibition (IC50) is greater than 87 µM in series [8], greater than 87 µM in series [9] and 11.7 µM in series [10] (setting [21]). In addition, the MBC entry in series [1], in series [5] and in series [6] was “inactive” in each case. Moreover, the MIC entry in series [1], in series [5] and in series [6] was “inactive” throughout. For the same compound, the result in [3] and in series [11] was inactive.

As to `Nc1nccc(-c2cn(CN3C(=O)c4ccccc4C3=O)c3ccc(Br)cc23)n1`, the IC50 entry in series [1] was “Not Active”; in series [5], 26.9 µM; in series [6], “Not Active”. Further, the MBC entry in series [1], in series [5] and in series [6] was “inactive” each time. Moreover, the MIC result in [1], in series [5] and in [6] was “inactive” in each case. The outcome in series [2], in series [3], in [7], in series [10] and in series [11] was inactive.
